Experimental data: patent US20090239840A1, “AMINO SUBSTITUTED DIARYL[a,d]CYCLOHEPTENE ANALOGS AS [sequence] AGONISTS AND METHODS OF TREATMENT OF NEUROPSYCHIATRIC DISORDERS” (ACADIA PHARMACEUTICALS, INC., priority 2003, published 2009)
Read-outs that look alike come from different tables or passages of the source.

Legend:
[1] = biological target: T1, muscarinic M1 receptor (Homo sapiens, UniProt P11229); assay: R-SAT functional screen, M1; assay type: cell-based; conditions: for Emax: read-out: M1 eff (efficacy)
T1 construct: expressed in transfected cells
T1 sequence (P11229 1-460): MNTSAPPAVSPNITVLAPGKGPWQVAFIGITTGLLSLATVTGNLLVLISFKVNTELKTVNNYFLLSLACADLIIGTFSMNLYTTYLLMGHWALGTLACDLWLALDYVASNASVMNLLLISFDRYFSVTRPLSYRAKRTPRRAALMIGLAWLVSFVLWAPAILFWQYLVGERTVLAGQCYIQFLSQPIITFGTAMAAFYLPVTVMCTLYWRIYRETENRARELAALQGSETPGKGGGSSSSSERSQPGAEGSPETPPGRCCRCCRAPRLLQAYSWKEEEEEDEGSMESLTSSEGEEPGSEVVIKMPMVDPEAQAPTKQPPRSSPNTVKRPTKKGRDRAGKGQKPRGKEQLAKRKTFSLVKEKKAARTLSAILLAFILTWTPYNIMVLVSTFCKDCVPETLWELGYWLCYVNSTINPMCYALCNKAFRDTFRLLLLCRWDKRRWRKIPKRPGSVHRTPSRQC
Protocol: (§1) Several compounds disclosed herein were evaluated for activity at muscarinic receptors using Receptor Selection and Amplification Technology (R-SAT) as described in U.S. Pat. No. 5,707,798, the disclosure of which is incorporated herein by reference in its entirety. The efficacy (eff) and potency (expressed as pEC50) of these compounds are presented in Table 1 at M1, M2, and M3 receptors.

[2] = biological target: T2, muscarinic M2 receptor (Homo sapiens, UniProt P08172); assay: R-SAT functional screen, M2; assay type: cell-based; conditions: for Emax: read-out: M2 eff (efficacy)
T2 construct: expressed in transfected cells
T2 sequence (P08172 1-466): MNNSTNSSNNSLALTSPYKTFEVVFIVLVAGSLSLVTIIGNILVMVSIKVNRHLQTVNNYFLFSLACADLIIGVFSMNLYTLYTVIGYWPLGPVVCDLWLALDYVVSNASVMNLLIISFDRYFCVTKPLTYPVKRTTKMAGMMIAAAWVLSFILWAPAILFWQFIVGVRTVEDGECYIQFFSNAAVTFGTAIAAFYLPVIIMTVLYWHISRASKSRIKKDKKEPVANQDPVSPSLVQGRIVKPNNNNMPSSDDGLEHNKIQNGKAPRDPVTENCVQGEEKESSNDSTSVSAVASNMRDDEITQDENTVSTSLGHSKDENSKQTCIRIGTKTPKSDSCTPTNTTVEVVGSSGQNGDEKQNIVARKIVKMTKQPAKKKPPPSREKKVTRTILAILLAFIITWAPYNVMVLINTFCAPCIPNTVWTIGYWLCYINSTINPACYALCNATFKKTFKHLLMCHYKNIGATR
Protocol: as §1

[3] = R-SAT, read-out: M1 pEC50 (converted)
[4] = R-SAT, read-out: M2 pEC50 (converted)

SMILES | Emax ([1]; R-SAT) [%] | EC50 [1, 3] [nM] | Emax ([2]; R-SAT) [%] | EC50 [2, 4] [nM] | EC50 [1] [nM] | Emax [1] [%] | EC50 [2] [nM] | Emax [2] [%]
FC(F)(F)c1ccc2c(c1)N=C(N1CCNCC1)c1ccccc1N2 [11-(piperazin-1-yl)-8-trifluoromethyl-5H-dibenzo[b,e][1,4]diazepine] | 53 | 316 | 131 | 3160 |  |  |  | 
Clc1ccc2c(c1)N=C(N1CCCNCC1)c1ccccc1N2 [8-Chloro-11-[1,4]diazepam-1-yl-5H-dibenzo[b,e][1,4]diazepine] |  |  |  |  | 100 | 37 | 631 | 82
Clc1ccc2c(c1)N=C(N1CCNCC1)c1ccccc1S2 [8-Chloro-11-(piperazin-1-yl)-dibenzo[b,f][1,4]thiazepine] | 11 |  | 52 | 1260 |  |  |  | 
Fc1ccc2c(c1)N=C(N1CCNCC1)c1ccccc1N2 [8-Fluoro-11-(piperazin-1-yl)-5H-dibenzo[b,e][1,4]diazepine] | 32 | 200 | 95 | 2000 |  |  |  | 
Clc1ccc2c(c1)N=C(c1ccncc1)c1ccccc1N2 [8-Chloro-11-(pyridin-4-yl)-5H-dibenzo[b,e][1,4]diazepine] | 6 |  | 6 |  |  |  |  | 
Clc1ccc2c(c1)N=C(NC1CCNC1)c1ccccc1N2 (centres unmarked) [(8-Chloro-5H-dibenzo[b,e][1,4]diazepin-11-yl)-pyrrolidin-3-yl-amine] | 10 |  | 18 |  |  |  |  | 
COc1ccc2c(c1)C(N1CCNCC1)=Nc1cc(Cl)ccc1N2 [8-Chloro-2-methoxy-11-(piperazin-1-yl)-5H-dibenzo[b,e][1,4]diazepine] | 7 |  | 7 |  |  |  |  | 
Clc1cc2c(cc1Cl)Nc1ccccc1C(N1CCNCC1)=N2 [7,8-Dichloro-11-(piperazin-1-yl)-5H-dibenzo[b,e][1,4]diazepine] | 32 | 79.4 | 8 |  |  |  |  | 
CCCCCCCCCc1ccc(C2=Nc3cc(Cl)ccc3Nc3ccccc32)cc1 [8-Chloro-11-(4-nonylphenyl)-5H-dibenzo[b,e][1,4]diazepine] | 1 |  | 8 |  |  |  |  | 
Clc1ccc2c(c1)N=C(N1CCNCC1)c1cccnc1N2 [8-Chloro-5-piperazin-1-yl-1H-benzo[b]pyrido[2,3-e][1,4]diazepine] |  | 3160 |  |  |  | 51 |  | 7
Brc1ccc2c(c1)N=C(N1CCNCC1)C1CCCC1N2 (centres unmarked) [7-Bromo-10-(piperazin-1-yl)-1,2,3,3a,4,10a-hexahydro-benzo[b]cyclopenta[e][1,4]diazepine] | 50 | 1580 | 12 |  |  |  |  | 
Cc1ccc2c(c1)C(N1CCNCC1)=Nc1cc(Cl)ccc1N2 [8-Chloro-2-methyl-11-(piperazin-1-yl)-5H-dibenzo[b,e][1,4]diazepine] | 14 |  | 28 | 1260 |  |  |  | 
Clc1ccc2c(c1)N=C(NC[C@@H]1CCCN1)c1ccccc1N2 [(8-Chloro-5H-dibenzo[b,e][1,4]diazepin-11-yl)-(S)-1-pyrrolidin-2-yl-methyl-amine] | 77 | 501 | 23 |  |  |  |  | 
c1ccc2c(c1)Sc1cc3c(cc1N=C2N1CCNCC1)OCCO3 [11-(piperazin-1-yl)-2,3-dihydro-1,4-benzodioxino[6,7-b][1,4]benzothiazepin] | 6 |  | 28 |  |  |  |  | 
NC1CCN(C2=Nc3cc(Cl)ccc3Nc3ccccc32)C1 (centres unmarked) [1-(8-Chloro-5H-dibenzo[b,e][1,4]diazepin-11-yl)-pyrrolidin-3-yl-amine] | 8 |  | 36 | 3160 |  |  |  | 
C=CCN1c2ccc(Cl)cc2N=C(N2CCNCC2)c2ccccc21 [5-Allyl-8-chloro-11-(piperazin-1-yl)-5H-dibenzo[b,e][1,4]diazepine] | 12 |  | 46 | 1580 |  |  |  | 
Clc1ccc2c(c1)N=C(N1CCNCC1)c1ccccc1O2 [8-Chloro-11-(piperazin-1-yl)-dibenzo[b,f][1,4]oxazepine] | 52 | 100 | 58 | 1000 |  |  |  | 
Clc1ccc2c(c1)N=C(c1cn[nH]c1)c1ccccc1N2 [8-Chloro-11-(1H-pyrazol-4-yl)-5H-dibenzo[b,e][1,4]diazepine] | 9 |  | 3 |  |  |  |  | 

SMILES | Emax ([1]; R-SAT) [%] | EC50 [1, 3] [nM] | Emax ([2]; R-SAT) [%] | EC50 [2, 4] [nM] | EC50 [1] [nM] | Emax [1] [%] | EC50 [2] [nM] | Emax [2] [%]
CN(C)CCNC1=Nc2cc(Cl)ccc2Nc2ccccc21 [N′-(8-Chloro-5H-dibenzo[b,e][1,4]diazepine-11-yl)-N,N-dimethyl-ethane-1,2-diamine] | 4 |  | 11 |  |  |  |  | 
c1ccc2c(c1)N=C(N1CCNCC1)c1ccccc1S2 [11-(piperazin-1-yl)-dibenzo[b,f][1,4]thiazepin] | 4 |  | 41 | 316 |  |  |  | 
O=S(=O)(Oc1ccc2c(c1)C(N1CCNCC1)=Nc1ccccc1O2)C(F)(F)F [2-(Trifluoromethanesulfonyloxy)-11-(piperazin-1-yl)-5H-dibenzo[b,e][1,4]oxazepine] | -11 |  | 4 |  |  |  |  | 
O=S(=O)(Oc1ccc2c(c1)C(N1CCNCC1)=Nc1ccccc1N2)C(F)(F)F [2-(Trifluoromethanesulfonyloxy)-11-(piperazin-1-yl)-5H-dibenzo[b,e][1,4]diazepine] | -8 |  | 9 |  |  |  |  | 
Fc1ccc2c(c1)C(N1CCNCC1)=Nc1cc(Cl)ccc1N2 [8-Chloro-2-fluoro-11-(piperazin-1-yl)-5H-dibenzo[b,e][1,4]diazepine] | 32 | 158 | 121 | 3160 |  |  |  | 
Clc1ccc2c(c1)N=C(NC[C@H]1CCCN1)c1ccccc1N2 [(8-Chloro-5H-dibenzo[b,e][1,4]diazepin-11-yl)-(R)-1-pyrrolidin-2-yl-methyl-amine] | 4 |  | 5 |  |  |  |  | 
CCN(CC)CCNC1=Nc2cc(Cl)ccc2Nc2ccccc21 [N′-(8-Chloro-5H-dibenzo[b,e][1,4]diazepine-11-yl)-N,N-diethyl-ethane-1,2-diamine] | 6 |  | 9 |  |  |  |  | 
CNCCNC1=Nc2cc(Cl)ccc2Nc2ccccc21 [N′-(8-Chloro-5H-dibenzo[b,e][1,4]diazepine-11-yl)-N-methyl-ethane-12-diamine] | 5 |  | 8 |  |  |  |  | 
NC1CCN(C2=Nc3cc(Cl)ccc3Nc3ccccc32)CC1 [1-(8-Chloro-5H-dibenzo[b,e][1,4]diazepin-11-yl)-piperidine-4-yl-amine] | 6 |  | 95 | 2510 |  |  |  | 
O=S(=O)(Oc1ccc2c(c1)N=C(N1CCNCC1)c1ccccc1N2)C(F)(F)F [8-(Trifluoromethanesulfonyloxy)-11-(piperazin-1-yl)-5H-dibenzo[b,e][1,4]diazepine] | 19 |  | 62 | 2510 |  |  |  | 
CC1CN(C2=Nc3cc(Cl)ccc3Nc3ccccc32)CC(C)N1 (centres unmarked) [8-Chloro-11-(3,5-dimethyl-piperazin-1-yl)-5H-dibenzo[b,e][1,4]diazepine] | 18 |  | 97 | 2510 |  |  |  | 
Clc1ccc2c(c1)N=C(N1CCCCC1)c1ccccc1N2 [8-Chloro-11-(piperidin-1-yl)-5H-dibenzo[b,e][1,4]diazepine] | 47 | 1580 | 9 |  |  |  |  | 
Brc1ccc2c(c1)N=C(N1CCNCC1)CCN2 [7-Bromo-4-(piperazin-1-yl)-2,3-dihydro-1H-benzo[b][1,4]diazepine] | 56 | 2510 | 3 |  |  |  |  | 
CN1c2ccc(Br)cc2N=C(N2CCNCC2)c2ccccc21 [8-Bromo-5-methyl-11-(piperazin-1-yl)-5H-dibenzo[b,e][1,4]diazepine] | 92 | 398 | 75 | 2510 |  |  |  | 
CN(C)CCNC1=Nc2cc(F)ccc2Nc2ccccc21 [N′-(8-Fluoro-5H-dibenzo[b,e][1,4]diazepine-11-yl)-N,N-dimethyl-ethane-1,2-diamine] | 7 |  | 21 |  |  |  |  | 
Clc1ccc2c(c1)Nc1ccc(Br)cc1N=C2N1CCNCC1 [8-Bromo-3-chloro-11-(piperazin-1-yl)-5H-dibenzo[b,e][1,4]diazepine] | 31 | 251 | 34 | 316 |  |  |  | 
C[C@@H]1CN(C2=Nc3cc(Cl)ccc3Nc3ccccc32)[C@@H](C)CN1 (relative stereo) [8-Chloro-11-(trans-2,5-dimethyl-piperazin-1-yl)-5H-dibenzo[b,e][1,4]diazepine] | 8 |  | 24 |  |  |  |  | 
